Laboratory results published in US4177350A, “Imidazole ethyl oxyalkoxy derivatives and thio analogues thereof” (Siegfried Aktiengesellschaft, priority 1977, dated 1979).
In brackets after ≈: the same amount, converted by molar mass.

Key:
[1] = tested on: Staphylococcus aureus haemolyticus; assay: minimum inhibitory concentration, gradient plate method, Staphylococcus aureus haemolyticus; format: cell-based; parameters: key to partial resistancy, Bacteria, St: partial resistancy observed; conditions: for MIC: 72 h, gradient 0-100 μg/ml, 10% aqueous dimethyl formamide, evaluated three days after inoculation, read-out: Minimum Inhibitory Concentration, Bacteria, St
From the text: (§1) Test evaluation was made three days after inoculation.

in vivo = conditions: mouse, po
From the text: The results of these tests are summarized in the following Table I together with the oral toxicity values (LD50 per os; mice, values in mg per kg of body weight) determined in the conventional manner.

[2] = tested on: Trichophyton mentagrophytes; assay: minimum inhibitory concentration, gradient plate method, Trichophyton mentagrophytes; format: cell-based; conditions: 72 h, gradient 0-100 μg/ml, 10% aqueous dimethyl formamide, evaluated three days after inoculation, read-out: Minimum Inhibitory Concentration, Fungi, Tri
From the text: as §1

Aspergillus niger = assay: minimum inhibitory concentration, gradient plate method, Aspergillus niger; format: cell-based; parameters: key to partial resistancy, Fungi, Asp: partial resistancy observed; conditions: for MIC: 72 h, gradient 0-100 μg/ml, 10% aqueous dimethyl formamide, evaluated three days after inoculation, read-out: Minimum Inhibitory Concentration, Fungi, Asp
From the text: as §1

Streptococcus faecalis = assay: minimum inhibitory concentration, gradient plate method, Streptococcus faecalis; format: cell-based; parameters: key to partial resistancy, Bacteria, Str: partial resistancy observed; conditions: for MIC: Enterococcus faecalis, 72 h, gradient 0-100 μg/ml, 10% aqueous dimethyl formamide, evaluated three days after inoculation, read-out: Minimum Inhibitory Concentration, Bacteria, Str
From the text: as §1

| SMILES | MIC [1] [µg/mL] | LD50 (in vivo) [mg/kg] | MIC [2] [µg/mL] | MIC (Aspergillus niger) [µg/mL] | MIC (Streptococcus faecalis) [µg/mL] | partial resistancy, Bacteria, Str (Streptococcus faecalis) | partial resistancy, Fungi, Asp (Aspergillus niger) | partial resistancy, Bacteria, St [1] |
| --- | --- | --- | --- | --- | --- | --- | --- | --- |
| CSc1ccc(OCOC(Cn2ccnc2)c2ccc(Cl)cc2Cl)cc1 (stereo not drawn) [Example 8, 1-β-(4-methylthiophenoxymethoxy-2,4-dichlorophenethyl)-imidazole nitrate] | 10 | ~2100 | < 10 | < 10 | – | – | – | – |
| CSCOC(Cn1ccnc1)c1ccc(Cl)cc1Cl (stereo not drawn) [Example 10, 1-β-(methylthiomethoxy-2,4-dichlorophenethyl)-imidazole nitrate] | 20 | ~950 | < 10 | < 10 | 30 | – | – | – |
| Cc1ccc(OCOC(Cn2ccnc2)c2ccc(Cl)cc2Cl)cc1 (stereo not drawn) [Example 6, 1-β-(4-methylphenoxymethoxy-2,4-dichlorophenethyl)-imidazole nitrate] | < 10 | > 3000 | < 10 | < 10 | 15 | – | – | – |
| Clc1ccc(SCCCCOC(Cn2ccnc2)c2ccc(Cl)cc2Cl)cc1 (stereo not drawn) [Example 36, 1-{β-[4-(p-chlorophenylthio)-butoxy]-2,4-dichlorophenethyl}-imidazolenitrate] | < 10 | > 3000 | < 10 | 35 (≈ 76.8 µM) | – | r | – | – |
| CC(C(OCSc1ccc(Cl)cc1)c1ccc(Cl)cc1Cl)n1ccnc1 (stereo not drawn) [Example 25, 1-[β-(p-chlorophenylthiomethoxy)-2,4-dichlorophenethyl-α-methyl]-imidazole nitrate] | < 10 | > 10000 | < 10 | – | < 10 | – | r | – |
| Cc1cc(SCOC(Cn2ccnc2)c2ccc(Cl)cc2Cl)ccc1Br (stereo not drawn) [Example 16, 1-β-(4-bromo-3-methylphenylthiomethoxy-2,4-dichlorophenethyl)-imidazole nitrate] | < 10 | > 3000 | < 10 | < 10 | 10 | – | – | – |
| Clc1ccc(C(Cn2ccnc2)OCSc2ccccc2)c(Cl)c1 (stereo not drawn) [Example 11, 1-β-(phenylthiomethoxy-2,4-dichlorophenethyl)-imidazole nitrate] | < 10 | > 3000 | < 10 | < 10 | 20 | – | – | – |
| Clc1ccc(SCOC(Cn2ccnc2)c2ccc(Cl)cc2Cl)cc1 (stereo not drawn) [Example 13, 1-β-(4-chlorophenylthiomethoxy-2,4-dichlorophenethyl)-imidazole nitrate] | 10 | 3850 | < 10 | < 10 | 10 | – | – | – |
| Cc1ccc(SCOC(Cn2ccnc2)c2ccc(Cl)cc2Cl)cc1 (stereo not drawn) [Example 14, 1-β-(4-methylphenylthiomethoxy-2,4-dichlorophenethyl)-imidazole nitrate] | < 10 | > 3000 | < 10 | < 10 | < 10 | – | – | – |
| Clc1ccc(OCCCSC(Cn2ccnc2)c2ccc(Cl)cc2Cl)cc1 (stereo not drawn) [Example 33, 1-{β-[3-(p-chlorophenoxy)-propylthio-2,4-dichlorophenethyl]}-imidazole] | < 10 | > 1000 | < 10 | 25 (≈ 56.6 µM) | 10 (≈ 22.6 µM) | – | – | – |
| Clc1ccc(OCOC(Cn2ccnc2)c2ccc(Cl)cc2Cl)c(Cl)c1 (stereo not drawn) [Example 5, 1-β-(2,4-dichlorophenoxymethoxy-2,4-dichlorophenethyl)-imidazole nitrate] | < 10 | > 3000 | < 10 | < 10 | < 10 | – | – | – |
| Clc1ccc(C(Cn2ccnc2)OCCOc2ccccc2)c(Cl)c1 (stereo not drawn) [Example 27, 1-β-(phenoxyethoxy-2,4-dichlorophenethyl)-imidazole nitrate] | – | ~800 | < 10 | < 10 | 30 | – | – | r |
| Clc1ccc(CSCOC(Cn2ccnc2)c2ccc(Cl)cc2Cl)cc1 (stereo not drawn) [Example 23, 1-β-(p-chlorobenzylthiomethoxy-2,4-dichlorophenethyl)-imidazole nitrate] | < 10 | > 2000 | < 10 | < 10 | – | – | – | – |
| CSCOC(Cn1ccnc1)c1ccc(Cc2ccc(Cl)cc2)cc1 (stereo not drawn) [Example 19, 1-[β-methylthiomethoxy-4-(4'-chlorobenzyl)-phenethyl]-imidazole nitrate] | 10 | 970 | < 10 | 10 | 25 | – | – | – |
| Clc1ccc(OCCOC(Cn2ccnc2)c2ccc(Cl)cc2Cl)cc1 (stereo not drawn) [Example 28, 1-[β-(p-chlorophenoxyethoxy)-2,4-dichlorophenethyl)]-imidazole nitrate] | < 10 | > 3000 | < 10 | < 10 | 10 | – | – | – |
| Clc1ccc(SCOC(Cn2ccnc2)c2ccc(Cl)cc2Cl)nc1 (stereo not drawn) [Example 26, 1-β[(5'-chloropyridyl-2'-thiomethoxy)-2,4-dichlorophenethyl)]-imidazole nitrate] | 10 | ~2700 | < 10 | < 10 | 20 | – | – | – |

| SMILES | MIC [1] [µg/mL] | LD50 (in vivo) [mg/kg] | MIC [2] [µg/mL] | MIC (Aspergillus niger) [µg/mL] | MIC (Streptococcus faecalis) [µg/mL] | partial resistancy, Bacteria, Str (Streptococcus faecalis) | partial resistancy, Fungi, Asp (Aspergillus niger) | partial resistancy, Bacteria, St [1] |
| --- | --- | --- | --- | --- | --- | --- | --- | --- |
| Clc1ccc(C(Cn2ccnc2)OCOc2ccccc2)c(Cl)c1 (stereo not drawn) [Example 2, 1-β-(phenoxymethoxy-2,4-dichlorophenethyl)-imidazole nitrate] | 10 | > 3000 | < 10 | < 10 | 25 | – | – | – |
| Clc1ccc(SCCSC(Cn2ccnc2)c2ccc(Cl)cc2Cl)cc1 (stereo not drawn) [Example 21, 1-β-(4-chlorophenylthioethylthio-2,4-dichlorophenethyl)-imidazole] | < 10 | > 3000 | < 10 | < 10 | – | – | – | – |
| Clc1ccc(C(Cn2ccnc2)OCOc2ccc(-c3ccccc3)cc2)c(Cl)c1 (stereo not drawn) [Example 9, 1-β-(phenylphenoxymethoxy-2,4-dichlorophenethyl)-imidazole nitrate] | – | ~3500 | – | – | – | – | – | – |
| Clc1ccc(C(Cn2ccnc2)OCCCOc2ccccc2)c(Cl)c1 (stereo not drawn) [Example 20, 1-β-(3-phenoxypropyloxy-2,4-dichlorophenethyl)-imidazole methane sulfonate] | < 10 | ~2400 | < 10 | < 10 | < 10 | – | – | – |
| Clc1ccc(C(Cn2ccnc2)OCOc2ccccc2Cl)c(Cl)c1 (stereo not drawn) [Example 3, 1-β-(2-chlorophenoxymethoxy-2,4-dichlorophenethyl)-imidazole nitrate] | < 10 | > 3000 | < 10 | < 10 | 15 | – | – | – |
| COCOC(Cn1ccnc1)c1ccc(Cl)cc1Cl (stereo not drawn) [Example 1, 1-β-(methoxy-methoxy-2,4-dichlorophenethyl)-imidazole nitrate] | – | 540 | < 10 | < 10 | – | – | – | – |
| Clc1ccc(SCCSC(Cn2ccnc2)c2ccc(Cl)cc2Cl)nc1 (stereo not drawn) [Example 29, 1-{β-[(5'-chloropyridyl-2'-thio-2-ethylthio)-2,4-dichlorophenethyl]}-imidazole] | < 10 | > 2000 | < 10 | < 10 | – | – | – | – |
| Clc1ccc(SCCCSC(Cn2ccnc2)c2ccc(Cl)cc2Cl)cc1 (stereo not drawn) [Example 34, 1-{β-[3-(p-chlorophenylthiopropylthio)]-2,4-dichlorophenethyl}-imidazole nitrate] | 10 | > 3000 | < 10 | – | – | r | r | – |
| Clc1ccc(C(Cn2ccnc2)OCSc2ccc(Cl)c(Cl)c2)c(Cl)c1 (stereo not drawn) [Example 15, 1-β-(3,4-dichlorophenylthiomethoxy-2,4-dichlorophenethyl)-imidazole nitrate] | < 10 | ~7500 | < 10 | – | < 10 | – | r | – |
| Clc1ccc(OCCCOC(Cn2ccnc2)c2ccc(Cl)cc2Cl)cc1 (stereo not drawn) [Example 30, 1-{β-[3-(p-chlorophenoxy)-propoxy-2,4-dichlorophenethyl]}-imidazole nitrate] | < 10 | > 4000 | < 10 | < 10 | < 10 | – | – | – |
| Clc1ccc(OCOC(Cn2ccnc2)c2ccc(Cl)cc2Cl)cc1 (stereo not drawn) [Example 4, 1-β-(4-chlorophenoxymethoxy-2,4-dichlorophenethyl)-imidazole nitrate] | < 10 | ~2750 | < 10 | < 10 | < 10 | – | – | – |
| Clc1ccc(C(Cn2ccnc2)SCCCOc2ccccc2)c(Cl)c1 (stereo not drawn) [Example 32, 1-[β-(phenoxypropylthio)-2,4-dichlorophenethyl]-imidazole] | < 10 | > 2000 | < 10 | < 10 | – | r | – | – |
| COc1ccccc1OCOC(Cn1ccnc1)c1ccc(Cl)cc1Cl (stereo not drawn) [Example 24, 1-β-(2-methoxyphenoxymethyloxy-2,4-dichlorophenethyl)-imidazole nitrate] | – | ~1350 | < 10 | < 10 | – | – | – | r |
| OCCSC(Cn1ccnc1)c1ccc(Cl)cc1Cl (stereo not drawn) [Example 18, 1-β-(2,4-dichlorophenethyl-β'-hydroxyethylthio)-imidazole nitrate] | 50 | 1300 | 30 | – | 40 | – | – | – |
| Clc1ccc(C(Cn2ccnc2)OCSC2CCCCC2)c(Cl)c1 (stereo not drawn) [Example 22, 1-[β-(cyclohexylthiomethoxy-2,4-dichlorophenethyl)]-imidazole nitrate] | < 10 | > 3000 | < 10 | < 10 | < 10 | – | – | – |
